This note sets out measurements from ChEMBL document CHEMBL3217755, “Design, synthesis and biological evaluation of biphenyl urea derivatives as novel VEGFR-2 inhibitors” (Medchemcomm, 2013).

In one assay the test system is HeLa. The assay can be described thus: Antiproliferative activity against human HeLa cells after 48 hrs by MTT assay. In kind it is functional, cell-based. Background: Tetrazolium dyes change colour on reduction, which living cells bring about.
The next assay concerns SH-SY5Y. Nature of the assay: Antiproliferative activity against human SH-SY5Y cells after 48 hrs by MTT assay. In kind it is functional, cell-based.
Assay [1] is described as follows: Antiproliferative activity against human SMMC7721 cells after 48 hrs by MTT assay. In kind it is functional, cell-based. As to conditions: SMMC-7721, 48 h.
The subject of a further assay is MDA-MB-231. The assay can be described thus: Antiproliferative activity against human MDA-MB-231 cells after 48 hrs by MTT assay. In kind it is functional, cell-based. The settings on record: MDA-MB-231, 48 h.
For the next assay, the system named is A549. The assay can be described thus: Antiproliferative activity against human A549 cells after 48 hrs by MTT assay. As to conditions: A549, 48 h. In kind it is functional, cell-based.
The test system of another assay is K562. The assay can be described thus: Antiproliferative activity against human K562 cells after 48 hrs by MTT assay. The settings on record: K562, 48 h.
Assay [2] can be described thus: Antiproliferative activity against human SGC7901 cells after 48 hrs by MTT assay. In kind it is functional, cell-based. The settings on record: SGC-7901, 48 h.
In a further assay the test system is LoVo. Nature of the assay: Antiproliferative activity against human LoVo cells after 48 hrs by MTT assay. In kind it is functional, cell-based.
The subject of another assay is SK-BR-3. Nature of the assay: Antiproliferative activity against human SK-BR-3 cells after 48 hrs by MTT assay. In kind it is functional, cell-based. As to conditions: SK-BR-3, 48 h.

The IC50 is the midpoint of a concentration-inhibition curve.

`COc1cc(-c2cc(NC(=O)Nc3ccc(OCCCN4CCOCC4)cc3C)cc(OC)c2OC)ccc1/C(C)=N/O`: the IC50 in the assay on HeLa was found to be 243 µM; in the assay on SH-SY5Y, 18.4 µM; in assay [1], 33.3 µM; in the assay on MDA-MB-231, 49.2 µM; in the assay on A549, 23.7 µM; with K562, 15.8 µM.
Regarding `COc1cc(-c2cc(NC(=O)Nc3ccc(OCCN(C)C)cc3)cc(OC)c2OC)ccc1/C(C)=N/O`, the half-maximal inhibitory concentration (IC50) in the assay on HeLa worked out at 63.2 µM; with SH-SY5Y it was 6.2 µM; in the assay with MDA-MB-231, 35.2 µM; in assay [2] it was 34.2 µM; with K562, 8.58 µM.
On to `CCN(CC)CCOc1ccc(NC(=O)Nc2cc(OC)c(OC)c(-c3ccc(/C(C)=N/O)c(OC)c3)c2)cc1`, for which the IC50 was 13.4 µM in the assay on HeLa; 18.4 µM in the assay with SH-SY5Y; 36.4 µM in assay [1]; 20.3 µM with MDA-MB-231; 48.4 µM in the assay with LoVo; 58.1 µM in assay [2]. Also, the IC50 was found to be 11.7 µM with A549 and 1.29 µM with K562.
Turning to `COc1cc(-c2cc(NC(=O)Nc3ccc(OCCN4CCCC4)cc3)cc(OC)c2OC)ccc1/C(C)=N/O`, the figures for the IC50 in the assay on SK-BR-3, in the assay with LoVo and in the assay on K562 were 38.9 µM, 49.2 µM and 4.81 µM, respectively.
Turning to `COc1cc(-c2cc(NC(=O)Nc3ccc(OCCCN4CCOCC4)cc3)cc(OC)c2OC)ccc1/C(C)=N/O`, the IC50 worked out at 92.3 µM with HeLa; 4.91 µM with SH-SY5Y; 9.88 µM in [1]; 6.8 µM in assay [2]; 11.7 µM with A549; 0.29 µM in the assay with K562.
For `CCN(CC)CCOc1ccc(C)c(NC(=O)Nc2cc(OC)c(OC)c(-c3ccc(/C(C)=N/O)c(OC)c3)c2)c1`, the 50% inhibitory concentration (IC50) in the assay on SK-BR-3 came out at 14.7 µM; in the assay on SH-SY5Y, 43.5 µM; in the assay on A549, 11.2 µM; in the assay with K562, 1.25 µM.
As for `CNC(=O)c1cc(Oc2ccc(NC(=O)Nc3ccc(Cl)c(C(F)(F)F)c3)cc2)ccn1` [SORAFENIB], the IC50 in the assay on SK-BR-3 is 5.21 µM; with HeLa, 7.68 µM; in assay [1], 9.86 µM; in [2], 102 µM; with A549, 3.36 µM.
